In one assay the test system is NET formation. Briefly: NET formation by immunofluorescent confocal microscopy with serine protease inhibition. In kind it is cell-based, human. The conditions noted are these: preincubation, PMA 50 nM, 150 min. Here is the method:
(§1) Lysates were resolved by SDS-PAGE and immunoblotted with N- and C-terminal antibodies to H3. GAPDH was used as a loading control. […] At 150 min the cells were fixed and stained for neutrophil elastase (NE), chromatin (using a H2A-H2B-DNA antibody PL2.3) and DNA using DAPI (4′,6-diamidino-2-phenylindole). NS: non-stimulated. Images were taken at 63× and the scale bar is 20 μm.
For immunofluorescent imaging of purified cells, neutrophils/PBMCs were seeded in 24 well dishes containing glass coverslips, with 1×10^5 cells per well and incubated at 37° C. for 1 h allowing to adhere to the coverslip. At this stage, inhibitors and priming factors were included as indicated. Reactions were stopped by the addition of paraformaldehyde (2% [w/v]) for 20 min at RT or 4° C. overnight. After fixation, cells were washed and stained as previously described (Brinkmann et al 2012). Briefly, all steps were performed by floating inverted coverslips on drops of buffer on laboratory parafilm. Cells were permeabilised with PBS, pH 7.5, 0.5% (v/v) Triton X-100 for 3 min. For screening and quantification experiments, this permeabilization step was extended to 10 min. […]

The test system of assay [1] is Histone H3 cleavage by serine proteases. Briefly: PMA induced histone H3 cleavage in neutrophils (immunoblot) with serine protease inhibition. The following applies: preincubation 30 min. In kind it is cell-based, human. Here is the method: as §1
For all experiments, unless indicated, neutrophils were cultured RPMI (GIBCO 32404014) supplemented with 10 mM HEPES and 0.1% (w/v) HSA, which had been preequilibrated in CO2 conditions for 1 h. Cells were routinely cultured at 37° C., 5% CO2 unless indicated. For all experiments, stimuli were added to cell reactions as 10× working stock solutions freshly diluted in RPMI. For inhibition experiments, a 10× inhibitor stock and appropriate vehicle controls, were added to the cells and preincubated for the times stated in the figure legends.
To analyse proteins, lysates were prepared from stimulated or resting neutrophils. Cells were seeded in culture medium in 1.5 ml microcentrifuge tubes at 1×10^7 cells/ml with 5×10^6 cells per time point. After addition of the inhibitor or agonist, cells were gently mixed and incubated at 37° C. with gentle rotation. […]
For routine protein analysis, samples were analysed by 1D SDS-PAGE and immunoblotted. […] Blotting efficacy was assessed by Ponceau S staining. […]
(In general: A western blot detects proteins with antibodies after separation by electrophoresis.)

The test system of another assay is 3D9 binding to NETs. Briefly: Peptide competition assay. The conditions noted are these: 3D9 preincubated overnight with peptide; PMA 3 h neutrophils. On the set-up: species or system human. Here is the method: NS: non-stimulated. Images were taken on an upright fluorescent microscope at 20×. Scale bars-50 μm (full field) and 10 μm (inset). • (B) Immunoblots of lysates prepared from neutrophils stimulated with PMA (50 nM) for the times indicated in the figure. […] Samples were serially diluted and immobilized on a high affinity ELISA plate according to DNA content (for NETs, chromatin and DNA) or protein content (for recombinant histone H3) as determined by PicoGreen and bicinchoninic acid assays respectively. Starting concentration was 1 μg/ml DNA or protein. […] Data is presented for dilution 200 ng/ml. REIRR indicates unconjugated branched immunising peptide control formed by SEQ ID NO 11 and SEQ ID NO 26. This peptide was coated at 20 ng/ml. […] (F, G) Neutrophils were seeded in 10 ml petri dishes and stimulated for 3 h with PMA. Before total cell lysis and immunoprecipitation, NETs were digested with benzonase to liberate histones and octamers for antibody binding. […] (F) Coomassie stained gel of proteins immunoprecipitated by 3D9 or isotype control and the corresponding silver stained gel. The predicted cleaved H3 and intact H3 bands are indicated. […]
Neutrophils were seeded on coverslips in a 24 well dish (1×10^5 cells/well) and stimulated with PMA for 3 h and fixed with 2% PFA. […] Peptide competition was assessed visually by fluorescent microscopy.

The record followed here is US20240124564A1, “ANTI-CLEAVED HISTONE H3 MONOCLONAL ANTIBODY THAT SPECIFICALLY RECOGNIZES NEUTROPHIL EXTRACELLULAR TRAPS” (Max-Planck-Gesellschaft zur Förderung der Wissenschaften …, priority 2021, published 2024).

No end group written: not given here.

For `NCCc1ccc(S(=O)(=O)F)cc1` [AEBSF, 4-[2-aminoethyl] benzensulfonylfluoride], in the assay on NET formation, the “effect on NET formation” value is “inhibited NET formation and nuclear decondensation”. Moreover, in assay [1], the “effect on H3 cleavage upon PMA stimulation” value was “inhibited H3 cleavage”.

As to “branched immunising peptide: branched peptide formed by REIRR (SEQ ID NO 11) and REIRRKC-NH2 (SEQ ID NO 12) (also: branched: C-terminus of chain 1 amide-linked to Lys6 side chain of chain 2, chain 2 conjugated to KLH via Cys thiol, lactam at chain B 6 to a chain's C-terminus; listed as Homo sapiens)”, the “competition of 3D9 staining of NETs” value in the assay on 3D9 binding to NETs is recorded as “could block 3D9 binding to NETs”.
